Source: patent US20050090480A1, “Use of selected amino acid-zinc complexes as anti-malarials” (Council of Scientific & Industrial Research, priority 2003, published 2005)

Experiments:
[1] = tested on: chloroquine-resistant (W2Mef) strain of P. falciparum
Experimental: The W2Mef strain was used for these experiments. […] The following was the protocol for present experiment.
In the present study, Chloroquine-sensitive (3D7) strain and chloroquine-resistant (W2Mef) strain were used. The cultures were maintained in vitro using culture media consisting of standard RPMI-1640 supplemented with 10% heat inactivated Human Type O^+ Serum, 3.6% NaHCO3 at a hematocrit of 4%. All the assays were carried out in 96 well, flat bottom microtitre plates. For the synchronization of cultures, 5% sorbitol was used. The growth of the parasite was measured with incorporation of Hypoxanthine. A 200 μl volume of the culture parasite was added to each well initially. Different antimalarial compounds at varied concentrations were added to the wells. All the compounds were tested on both chloroquine-sensitive and chloroquine resistant strains. The plates were then placed in an airtight chamber and flushed with the gas mixture (5% CO2, 5% O2 and 90% N2). The plates were finally stored in an incubator at 37° C. for 24 hours.
At the end of the incubation period, 5 μl of diluted ^3H-Hypoxanthine—to a final concentration of 1 μCi—was added to each well. The plates were then returned to the airtight chamber and then flushed with the above gas mixture and incubated for an additional 24 hours. The plates were then stored at −70° C. until required for detection of incorporated radioactivity. When necessary, the plates were thawed and the cells were harvested onto filter-mats. These filter-mats were then dried and sealed.

[2] = tested on: Plasmodium yeoeli
Description: For these experiments, the mouse malaria parasite Plasmodium yeoeli was used as this strain is considered to be closer to human parasite, P. falciparum. Groups of eight mice each were infected with 10^6 parasites/mouse through an intra-peritoneal injection. […] The drug was given once a day for a total period of six days. The mice were then left alone for an additional period of three days, after which the number of survivors were counted (i.e. at […] after infection). The results are shown here in FIG. 5. Group 1 represents a control group of uninfected mice, with no drug given. Group 3 represents the group of infected mice, again with no drug given (i.e. vehicle only).

[3] = tested on: P. berghei; conditions: about 1 mg to 50 mg/kg
Experimental: BALB/c mice (4-6 weeks old) were infected with 10^5 P. berghei parasites/mouse. […] After four days of infection, various concentrations of compound, at the doses of 10 mg/kg (Group 2) and 20 mg/kg (Group 3) body weight was injected to the mice. The control group (Group 1) indicates the group of mice infected with the parasite, but without any drug (i.e. vehicle only). Group 4 represents a group of infected mice treated with Pyrimethamine (at 20 mg/kg body weight) using an identical treatment regimen. Each group contained ten mice and the parasitemia levels—obtained from blood smears—are given as a percentage of that obtained in untreated mice (FIG. 4).

[4] = tested on: 3D7 strain of P. falciparum; conditions: light microscope (FIG. 3)
Experimental: In this experiment, slides were prepared, stained with Giemsa and examined under a light microscope. Representative pictures are show in FIG. 3.

[5] = tested on: W2Mef; conditions: FIG. 8
[6] = tested on: P. falciparum; assay: P. falciparum in vitro culture, parasitemia by Giemsa stained smear after 48 hrs; type: cell-based, Plasmodium falciparum; conditions: for inhibition of growth of P. falciparum: 10 μM concentration, 48 hrs incubation at 37° C.
Experimental: Selective enrichment of activity was monitored at every step using P. falciparum culture for in vitro studies.
Zinc complex of L-proline was dissolved in normal saline and filter sterilized. The compound was added to the parasite culture at different concentrations ranging from 1- 10 μM. The compound was tested at the indicated doses using the experimental protocol as described below:
Protocol for Testing the Effect of Drug on P. falciparum for In Vitro Studios
The P. falciparum cultures were synchronized at first by sorbitol treatment. The compound of various concentrations was added to the 200 μl of synchronized P. falciparum culture (1% parasitemia). The parasitemia was checked by making Giemsa stained smear after 48 hrs of incubation at 37° C.

Compound	increase in the IC50 value for chloroquine, W2Mef compared with 3D7 strain ([1]; FIG. 6)	inhibits growth of P. yeoeli ([2]; about 1 mg to 50 mg/Kg)	percentage of survivors ([2]; oral 20 mg/kg body weight once a day for six days, counted twelve days after infection) [%]	potency against chloroquine-sensitive versus chloroquine-resistant strain ([1]; dose response analysis, 3D7 and W2Mef (FIG. 7))	activity against the chloroquine resistant strain-W2Mef ([1]; preliminary experiments and dose response analysis)	inhibits growth of P. berghei [3]	effect on the parasite in stained slides [4]	manner of action on W2Mef [5]	inhibition of growth of P. falciparum [6] [%]	inhibits growth of P. facliparum ([6]; about 5 μM to 10 μM)
CCN(CC)CCCC(C)Nc1ccnc2cc(Cl)ccc12 (centres unmarked) [chloroquine, Chloroquine, reference compound]	near sevenfold increase	–	–	–	–	–	–	–	–	–
Zinc complex of L-proline [PIZ2]	–	about 90%	88	remained identical	active	about 80%	significant disintegration of the parasite	direct killing	> 80	about 100%
Zinc complexes of L-histidine [Zinc complex of L-histidine]	–	–	–	–	–	–	–	–	~85	–
